This is an account of results in patent US12295936B2, “Immunomodulating urea azalides” (Zoetis Services LLC, priority 2020, dated 2025).

For this assay, the system named is BRD pathogens, M. haemolytica and P. multocida. Put plainly: MIC screening panel of BRD pathogens (antibacterial / non-antibacterial). The following applies: read-out: antibacterial / non-antibacterial (MIC for the BRD pathogens).
For `CC[C@H]1OC(=O)[C@H](C)[C@@H](O[C@H]2C[C@@](C)(OC)[C@](O)(CNCCCN3CCCC3=O)[C@H](C)O2)[C@H](C)[C@@H](O[C@@H]2O[C@H](C)C[C@H](N(C)C(=O)N(C)c3ccccc3)[C@H]2O)[C@](C)(O)C[C@@H](C)CN[C@H](C)[C@@H](O)[C@]1(C)O` [Example H-35, 1-((2S,3R,4S,6R)-2-(((2R,3S,4R,5R,8R,10R,11R,12S,13S,14R)-2-ethyl-3,4,10-trihydroxy-13-(((2R,4R,5S,6S)-5-hydroxy-4-methoxy-4,6-dimethyl-5-(((3-(2-oxopyrrolidin-1-yl)propyl)amino)methyl)tetrahydro-2H-pyran-2-yl)oxy)-3,5,8,10,12,14-hexamethyl-15-oxo-1-oxa-6-azacyclopentadecan-11-yl)oxy)-3-hydroxy-6-methyltetrahydro-2H-pyran-4-yl)-1,3-dimethyl-3-phenylurea], the MIC was > 64 µg/mL.
For `CC[C@H]1OC(=O)[C@H](C)[C@@H](O[C@H]2C[C@@](C)(OC)[C@](O)(CNCC3CC3)[C@H](C)O2)[C@H](C)[C@@H](O[C@@H]2O[C@H](C)C[C@H](N(C)C(=O)N(C)c3ccccc3)[C@H]2O)[C@](C)(O)C[C@@H](C)CN[C@H](C)[C@@H](O)[C@]1(C)O` [Example H-41, 1-((2S,3R,4S,6R)-2-(((2R,3S,4R,5R,8R,10R,11R,12S,13S,14R)-13-(((2R,4R,5S,6S)-5-(((cyclopropylmethyl)amino)methyl)-5-hydroxy-4-methoxy-4,6-dimethyltetrahydro-2H-pyran-2-yl)oxy)-2-ethyl-3,4,10-trihydroxy-3,5,8,10,12,14-hexamethyl-15-oxo-1-oxa-6-azacyclopentadecan-11-yl)oxy)-3-hydroxy-6-methyltetrahydro-2H-pyran-4-yl)-1,3-dimethyl-3-phenylurea] the value was > 64 µg/mL; for `CC[C@H]1OC(=O)[C@H](C)[C@@H](O[C@H]2C[C@@](C)(OC)[C@](O)(CNCCCn3ccccc3=O)[C@H](C)O2)[C@H](C)[C@@H](O[C@@H]2O[C@H](C)C[C@H](N(C)C(=O)N(C)c3ccccc3)[C@H]2O)[C@](C)(O)C[C@@H](C)CN[C@H](C)[C@@H](O)[C@]1(C)O` [Example H-47, 1-((2S,3R,4S,6R)-2-(((2R,3S,4R,5R,8R,10R,11R,12S,13S,14R)-2-ethyl-3,4,10-trihydroxy-13-(((2R,4R,5S,6S)-5-hydroxy-4-methoxy-4,6-dimethyl-5-(((3-(2-oxopyridin-1(2H)-yl)propyl)amino)methyl)tetrahydro-2H-pyran-2-yl)oxy)-3,5,8,10,12,14-hexamethyl-15-oxo-1-oxa-6-azacyclopentadecan-11-yl)oxy)-3-hydroxy-6-methyltetrahydro-2H-pyran-4-yl)-1,3-dimethyl-3-phenylurea], > 64 µg/mL.
Turning to `CCCNC[C@]1(O)[C@H](C)O[C@@H](O[C@H]2[C@H](C)[C@@H](O[C@@H]3O[C@H](C)C[C@H](N(C)C(=O)N(C)c4cccnn4)[C@H]3O)[C@](C)(O)C[C@@H](C)CN[C@H](C)[C@@H](O)[C@](C)(O)[C@@H](CC)OC(=O)[C@@H]2C)C[C@@]1(C)OC` [Example H-48, 1-((2S,3R,4S,6R)-2-(((2R,3S,4R,5R,8R,10R,11R,12S,13S,14R)-2-ethyl-3,4,10-trihydroxy-13-(((2R,4R,5S,6S)-5-hydroxy-4-methoxy-4,6-dimethyl-5-((propylamino)methyl)tetrahydro-2H-pyran-2-yl)oxy)-3,5,8,10,12,14-hexamethyl-15-oxo-1-oxa-6-azacyclopentadecan-11-yl)oxy)-3-hydroxy-6-methyltetrahydro-2H-pyran-4-yl)-1,3-dimethyl-3-(pyridazin-3-yl)urea], the MIC was > 64 µg/mL.
Take `CCCNC[C@]1(O)[C@H](C)O[C@@H](O[C@H]2[C@H](C)[C@@H](O[C@@H]3O[C@H](C)C[C@H](N(C)C(=O)N(C)c4ncccn4)[C@H]3O)[C@](C)(O)C[C@@H](C)CN[C@H](C)[C@@H](O)[C@](C)(O)[C@@H](CC)OC(=O)[C@@H]2C)C[C@@]1(C)OC` [Example H-49, 1-((2S,3R,4S,6R)-2-(((2R,3S,4R,5R,8R,10R,11R,12S,13S,14R)-2-ethyl-3,4,10-trihydroxy-13-(((2R,4R,5S,6S)-5-hydroxy-4-methoxy-4,6-dimethyl-5-((propylamino)methyl)tetrahydro-2H-pyran-2-yl)oxy)-3,5,8,10,12,14-hexamethyl-15-oxo-1-oxa-6-azacyclopentadecan-11-yl)oxy)-3-hydroxy-6-methyltetrahydro-2H-pyran-4-yl)-1,3-dimethyl-3-(pyrimidin-2-yl)urea]: the MIC was > 64 µg/mL.
To `CCCNC[C@]1(O)[C@H](C)O[C@@H](O[C@H]2[C@H](C)[C@@H](O[C@@H]3O[C@H](C)C[C@H](N(C)C(=O)N(C)c4ncc(C5CC5)cn4)[C@H]3O)[C@](C)(O)C[C@@H](C)CN[C@H](C)[C@@H](O)[C@](C)(O)[C@@H](CC)OC(=O)[C@@H]2C)C[C@@]1(C)OC` [Example H-52, 1-(5-cyclopropylpyrimidin-2-yl)-3-((2S,3R,4S,6R)-2-(((2R,3S,4R,5R,8R,10R,11R,12S,13S,14R)-2-ethyl-3,4,10-trihydroxy-13-(((2R,4R,5S,6S)-5-hydroxy-4-methoxy-4,6-dimethyl-5-((propylamino)methyl)tetrahydro-2H-pyran-2-yl)oxy)-3,5,8,10,12,14-hexamethyl-15-oxo-1-oxa-6-azacyclopentadecan-11-yl)oxy)-3-hydroxy-6-methyltetrahydro-2H-pyran-4-yl)-1,3-dimethylurea] belongs > 64 µg/mL; to `CCCNC[C@]1(O)[C@H](C)O[C@@H](O[C@H]2[C@H](C)[C@@H](O[C@@H]3O[C@H](C)C[C@H](N(C)C(=O)N(C)c4cccnc4)[C@H]3O)[C@](C)(O)C[C@@H](C)CN[C@H](C)[C@@H](O)[C@](C)(O)[C@@H](CC)OC(=O)[C@@H]2C)C[C@@]1(C)OC` [Example H-53, 1-((2S,3R,4S,6R)-2-(((2R,3S,4R,5R,8R,10R,11R,12S,13S,14R)-2-ethyl-3,4,10-trihydroxy-13-(((2R,4R,5S,6S)-5-hydroxy-4-methoxy-4,6-dimethyl-5-((propylamino)methyl)tetrahydro-2H-pyran-2-yl)oxy)-3,5,8,10,12,14-hexamethyl-15-oxo-1-oxa-6-azacyclopentadecan-11-yl)oxy)-3-hydroxy-6-methyltetrahydro-2H-pyran-4-yl)-1,3-dimethyl-3-(pyridin-3-yl)urea], > 64 µg/mL; to `CCCNC[C@]1(O)[C@H](C)O[C@@H](O[C@H]2[C@H](C)[C@@H](O[C@@H]3O[C@H](C)C[C@H](N(C)C(=O)N(c4ccccc4)C4CCOCC4)[C@H]3O)[C@](C)(O)C[C@@H](C)CN[C@H](C)[C@@H](O)[C@](C)(O)[C@@H](CC)OC(=O)[C@@H]2C)C[C@@]1(C)OC` [Example H-55, 1-((2S,3R,4S,6R)-2-(((2R,3S,4R,5R,8R,10R,11R,12S,13S,14R)-2-ethyl-3,4,10-trihydroxy-13-(((2R,4R,5S,6S)-5-hydroxy-4-methoxy-4,6-dimethyl-5-((propylamino)methyl)tetrahydro-2H-pyran-2-yl)oxy)-3,5,8,10,12,14-hexamethyl-15-oxo-1-oxa-6-azacyclopentadecan-11-yl)oxy)-3-hydroxy-6-methyltetrahydro-2H-pyran-4-yl)-1-methyl-3-phenyl-3-(tetrahydro-2H-pyran-4-yl)urea], > 64 µg/mL.
For `CCCNC[C@]1(O)[C@H](C)O[C@@H](O[C@H]2[C@H](C)[C@@H](O[C@@H]3O[C@H](C)C[C@H](N(C)C(=O)N(C)c4cc(C)nc(C)n4)[C@H]3O)[C@](C)(O)C[C@@H](C)CN[C@H](C)[C@@H](O)[C@](C)(O)[C@@H](CC)OC(=O)[C@@H]2C)C[C@@]1(C)OC` [Example H-57, 1-(2,6-dimethylpyrimidin-4-yl)-3-((2S,3R,4S,6R)-2-(((2R,3S,4R,5R,8R,10R,11R,12S,13S,14R)-2-ethyl-3,4,10-trihydroxy-13-(((2R,4R,5S,6S)-5-hydroxy-4-methoxy-4,6-dimethyl-5-((propylamino)methyl)tetrahydro-2H-pyran-2-yl)oxy)-3,5,8,10,12,14-hexamethyl-15-oxo-1-oxa-6-azacyclopentadecan-11-yl)oxy)-3-hydroxy-6-methyltetrahydro-2H-pyran-4-yl)-1,3-dimethylurea] the value was > 64 µg/mL.
To `CCCN(C[C@]1(O)[C@H](C)O[C@@H](O[C@H]2[C@H](C)[C@@H](O[C@@H]3O[C@H](C)C[C@H](N(C)C(=O)N(C)c4ccccc4)[C@H]3O)[C@](C)(O)C[C@@H](C)CN[C@H](C)[C@@H](O)[C@](C)(O)[C@@H](CC)OC(=O)[C@@H]2C)C[C@@]1(C)OC)C(=O)N(C)c1ccccc1` [Example H-63, 1-((2S,3R,4S,6R)-2-(((2R,3S,4R,5R,8R,10R,11R,12S,13S,14R)-2-ethyl-3,4,10-trihydroxy-13-(((2R,4R,5S,6S)-5-hydroxy-4-methoxy-4,6-dimethyl-5-((3-methyl-3-phenyl-1-propylureido)methyl)tetrahydro-2H-pyran-2-yl)oxy)-3,5,8,10,12,14-hexamethyl-15-oxo-1-oxa-6-azacyclopentadecan-11-yl)oxy)-3-hydroxy-6-methyltetrahydro-2H-pyran-4-yl)-1,3-dimethyl-3-phenylurea] belongs > 64 µg/mL; to `CCCNC[C@]1(O)[C@H](C)O[C@@H](O[C@H]2[C@H](C)[C@@H](O[C@@H]3O[C@H](C)C[C@H](N(C)C(=O)Nc4cccc(C#N)c4)[C@H]3O)[C@](C)(O)C[C@@H](C)CN[C@H](C)[C@@H](O)[C@](C)(O)[C@@H](CC)OC(=O)[C@@H]2C)C[C@@]1(C)OC` [Example H-79, 3-(3-cyanophenyl)-1-((2S,3R,4S,6R)-2-(((2R,3S,4R,5R,8R,10R,11R,12S,13S,14R)-2-ethyl-3,4,10-trihydroxy-13-(((2R,4R,5S,6S)-5-hydroxy-4-methoxy-4,6-dimethyl-5-((propylamino)methyl)tetrahydro-2H-pyran-2-yl)oxy)-3,5,8,10,12,14-hexamethyl-15-oxo-1-oxa-6-azacyclopentadecan-11-yl)oxy)-3-hydroxy-6-methyltetrahydro-2H-pyran-4-yl)-1-methylurea], > 64 µg/mL.
